Experimental data from PMC9607578, “Chemopreventive Effect on Human Colon Adenocarcinoma Cells of Styrylquinolines: Synthesis, Cytotoxicity, Proapoptotic Effect and Molecular Docking Analysis” (Molecules, 2022).
“Also recorded” adds a separate entry of the source. Read-outs that look alike come from different tables or passages of the source.

What was measured:
HaCaT cells = test: Cytotoxic activity, sulforhodamine B (SRB) staining; type: cell-based; conditions: Homo sapiens, read-out: HaCaT IC50
Description: (§1) For the biological assays, the human colon adenocarcinoma cell line SW480 and its metastatic derivative SW620 were used. Additionally, the nonmalignant cell line HaCaT was used to find the selectivity index of the compounds. All cell lines were obtained by the Colombian Plant Chemistry Group of the Faculty of Exact and Natural Sciences of the University of Antioquia (Medellín, Colombia) from the European Collection of Authenticated Cell Cultures (ECACC, Salisbury, UK). Cells were cultured in a DMEM medium with 4500 mg/L of glucose and L-glutamine (Sigma-Aldrich, Burlington, MA, USA), supplemented with 10% heat-inactivated (56 °C) horse serum (Gibco, Waltham, MA, USA), 1% penicillin/streptomycin (Sigma-Aldrich, Burlington, MA, USA), and 1% non-essential amino acids (Sigma-Aldrich, Burlington, MA, USA). For all experiments, horse serum was reduced to 3%, and the medium was supplemented with […] of transferrin, 5 ng/mL of selenium, and […] of insulin (ITS; Sigma-Aldrich, Burlington, MA, USA). All cell lines were incubated at 37 °C in a 5% CO2 atmosphere. Additionally, cell cultures were constantly monitored with PCR (Sigma-Aldrich, Burlington, MA, USA) for Mycoplasma spp. to control contamination with this agent.
(§2) To evaluate the effect of styrylquinolines on the viability of the SW480, SW620, and HaCaT cell lines, sulforhodamine B (SRB) staining was used. SRB is a colorimetric assay that indirectly estimates the number of living cells based on the ability of SRB to bind to protein components of adherent cells. Briefly, the malignant cell lines were seeded at a final density of 2.0 × 10^4 cells/well, and the nonmalignant cell line was seeded at a final density of 1.5 × 10^4 cells/well in 96-well tissue culture plates. All cell lines were incubated at 37 °C in a 5% CO2 atmosphere for 24 h to enable cell adherence, and they were then treated for 24 and 48 h with increasing concentrations (0.01–160 µM) of the styrylquinolines or their respective precursors (8-hydroxyquinoline and resveratrol), as well as 1% DMSO (negative control) and 5-FU (standard drug). After treatment, cells were fixed with trichloroacetic acid (50% v/v; PanReac AppliChem, Barcelona, Spain) for a period of one hour at 4 °C. After this, the cells were incubated for 30 min at room temperature with 0.4% (w/v) SRB (Sigma-Aldrich, Burlington, MA, USA). To remove unbound SRB, the cells were washed with 1% acetic acid, and the plates were allowed to dry at room temperature. Protein-bound SRB was solubilized with 10 mM Tris-base (Amresco, Cleveland, OH, USA) for 30 min at room temperature under constant agitation, and absorbance was measured at 490 nm in a microplate reader (Bio-Rad iMark^TM, Hercules, CA, USA). Finally, the concentration of the compound that inhibits 50% of cell growth (IC50) and the selectivity index (SI) were determined.

SW480 cells [1] = test: as above; type: cell-based, human; conditions: for IC50: Homo sapiens, read-out: SW480 IC50
Description: as §1, §2

SW620 cells [2] = test: as above; type: cell-based, human; conditions: for IC50: Homo sapiens, read-out: SW620 IC50
Description: as §1, §2

SW480 cells [3] = test: Antiproliferative activity, SRB staining, 0-8 days; type: cell-based, human
Description: (§3) The antiproliferative activity of styrylquinolines with higher selective cytotoxicity toward malignant cells was also tested with SRB staining. Briefly, cells were seeded to a final density of 2.5 × 10^3 cells/well in 96-well tissue culture plates and incubated under the same conditions described for cytotoxic activity. After 24 h, the cells were treated with increasing concentrations (5–80 µM) of the selected hybrids or with 1% DMSO (negative control) for 0, 2, 4, 6, and 8 days. Culture media were replaced every 48 h to guarantee the basic nutrients required for cell growth and viability, maintaining the concentrations of each of the selected hybrids. After each incubation time, cells were fixed and stained, and the absorbance was measured as described above.

SW620 cells [4] = test: Antiproliferative activity, SRB staining, 0-8 days; type: cell-based, human
Description: as §3

SW620 cells [5] = test: Apoptosis, APO-DIRECT kit (FITC-dUTP/PI), flow cytometry; type: cell-based, human; conditions: treated at IC50
Description: To assess whether the chosen styrylquinolines generated apoptosis in malignant cells, the APO-DIRECT^TM kit (Chemicon^R International, Temecula, CA, USA) was used following the manufacturer’s instructions. Briefly, the malignant cells were seeded at a final density of 1.1 × 10^6 cells in a T75 culture flask and incubated for 24 h at 37 °C in a 5% CO2 atmosphere. […] After incubation time, cells were fixed and stained with FITC-dUTP and propidium iodide (PI), respectively, according to the manufacturer’s protocol. Analysis was conducted via flow cytometry (LSR Fortessa; BD Biosciences, San Jose, CA, USA) and FlowJo 7.6 software. All PI-FITC-positive cells were considered to be apoptotic cells.

SW620 cells [6] = test: Apoptosis markers (Bcl-2, active caspase 3, cleaved PARP), human apoptosis panel, MAGPIX; type: cell-based; conditions: vs negative control
Description: (§4) To assess whether styrylquinolines had any effect on the expression of immunological markers associated with the inflammatory process, malignant cells were seeded at a final density of 2.5 × 10^5 cells/well in 6-well tissue culture plates, and cell adherence was allowed. […] After the incubation time, the supernatant was collected, and the levels of the following analytes were measured using the ProcartaPlex Human Th1/Th2/Th9/Th17/Th22/Treg 18-plex panel (Invitrogen) according to the manufacturer’s protocol: GM-CSF, IFN-γ, TNF-α, IL-10, IL-12p70, IL-13, IL-17A, IL-18, IL-1β, IL-2, IL-21, IL-22, IL-23, IL-27, IL-4, IL-5, IL-6, and IL-9. Furthermore, to evaluate the participation of these hybrids in the production of some markers associated with the apoptosis process (Bcl-2, active Caspase-3 and cleaved PARP) in colorectal cancer cells, the human apoptosis panel (Invitrogen, Waltham, Massachusetts, United States) was used following the manufacturer’s instructions. To normalize the concentration of each marker, total proteins were quantified using the PierceTM BCA kit (Thermo Fisher Scientific, Waltham, MA, USA).
(§5) In both cases, the reading was performed in the MAGPIX marker multiplex analyzer (Luminex XMAP, Austin, TX, USA). The concentration of each molecule was extrapolated from the calibration curve (individual for each marker) obtained from the standards provided by the kit.

SW480 cells [7] = test: Immunological markers, ProcartaPlex 18-plex panel, MAGPIX; type: cell-based, human; conditions: at IC50
Description: as §4, §5

SW620 cells [8] = test: as above; type: cell-based, human; conditions: at IC50
Description: as §4, §5

[9] = SW480, 24 h treatment, mean ± SE
[10] = SW480, 48 h treatment, mean ± SE
[11] = SW-620, 24 h treatment, mean ± SE
[12] = SW-620, 48 h treatment, mean ± SE

SMILES | IC50 (HaCaT cells; 24 h treatment, mean ± SE) [µM] | IC50 (HaCaT cells; 48 h treatment, mean ± SE) [µM] | SI (IC50 HaCaT / IC50 SW480) (SW480 cells [1]; 24 h treatment) | SI (IC50 HaCaT / IC50 SW480) (SW480 cells [1]; 48 h treatment) | IC50 (SW480 cells [1]; [9]) [µM] | IC50 (SW480 cells [1]; [10]) [µM] | SI (IC50 HaCaT / IC50 SW620) (SW620 cells [2]; 24 h treatment) | SI (IC50 HaCaT / IC50 SW620) (SW620 cells [2]; 48 h treatment) | IC50 (SW620 cells [2]; [11]) [µM] | IC50 (SW620 cells [2]; [12]) [µM] | further results
COc1cc(CCc2ccc3cccc(O)c3n2)ccc1O [Compound 4b, 2-(4-hydroxy-3-methoxyphenethyl)quinolin-8-ol] | 109 ± 8.1 | 53.6 ± 2.2 | 1.2 | 1.2 | 93.4 ± 16.6 | 43.2 ± 2 | 1.9 | 2.9 | 58.8 ± 5.5 | 18.6 ± 2 | –
Oc1cccc2cccnc12 [Compound 8-HQ, 8-hydroxyquinoline, reference compound] | – | – | 1.0 | 1.6 | – | – | 1.6 | 1.7 | – | – | IC50 (HaCaT cells; 24 h): 87.1 ± 9.4 µM; IC50 (HaCaT cells; 48 h): 61.6 ± 4.8 µM; IC50 (SW480 cells [1]; SW480, 24 h): 89.6 ± 11.8 µM; IC50 (SW480 cells [1]; SW480, 48 h): 38.8 ± 3.2 µM; IC50 (SW620 cells [2]; SW-620, 24 h): 55.3 ± 3.6 µM; IC50 (SW620 cells [2]; SW-620, 48 h): 36.3 ± 4.8 µM
Oc1ccc(CCc2ccc3cccc(O)c3n2)cc1 [Compound 4a, 2-(4-hydroxyphenethyl)quinolin-8-ol] | 65.1 ± 8.4 | 69.7 ± 3 | 0.6 | 1.1 | 117 ± 5.3 | 63.2 ± 7.1 | 1.3 | 2.4 | 51 ± 5.6 | 28.9 ± 1.2 | –
Oc1cccc(/C=C/c2ccc3cccc(O)c3n2)c1O [Compound 3b] | 57.2 ± 6.3 | 33.5 ± 4.9 | 0.8 | 0.9 | 72.6 ± 11 | 39 ± 3.6 | 1.2 | 3.4 | 49.1 ± 4.6 | 9.7 ± 2 | –
Oc1ccc(/C=C/c2ccc3cccc(O)c3n2)c(O)c1 [Compound 3c] | 110 ± 12.7 | 38.4 ± 6.2 | 3.0 | 1.0 | 37.1 ± 3.8 | 38.4 ± 3.8 | 1.8 | 1.9 | 62 ± 4 | 20.7 ± 3.1 | –
Oc1ccc(/C=C/c2ccc3cccc(O)c3n2)cc1 [Compound 3a] | 232 ± 29.2 | 47.9 ± 3.3 | 3.4 | 1.8 | 67.7 ± 2.8 | 26.5 ± 4 | 3.8 | 2.9 | 60.5 ± 2.9 | 16.6 ± 2.2 | Concentration required to significantly decrease cell viability percentage from day 2 post-treatment (SW480 cells [3]; SW480, day 2): 20 µM; Concentration from which cell viability percentage is decreased to 0% / high percentage of reduction (SW480 cells [3]; SW480, treatment up to 8 days): 10 µM; Concentration required to significantly decrease cell viability percentage from day 2 post-treatment (SW620 cells [4]; SW620, day 2): 5 µM; Concentration from which cell viability percentage is decreased to 0% / high percentage of reduction (SW620 cells [4]; SW620, treatment up to 8 days): 10 µM; Apoptotic cells (cell death by apoptosis) (SW620 cells [5]; SW620, 24 h): 6.8%; Apoptotic cells (cell death by apoptosis) (SW620 cells [5]; SW620, 48 h): 21.5%; Levels of Bcl-2 and cleaved PARP (SW620 cells [6]; SW620, 24 and 48 h): did not show significant differences; Levels of active caspase 3 (SW620 cells [6]; SW620, 24 and 48 h post-treatment): significantly increased; Levels of immunological markers (SW480 cells [7]; SW480, 24 h post-treatment): significant increases in the levels of GM-CSF, IFN gamma, IL-12p70, IL-4, IL-6, IL-10, and IL-17A; Levels of immunological markers (SW480 cells [7]; SW480, 48 h post-treatment): significant increases in GM-CSF, IFN gamma, IL-4, IL-6, IL-10 and IL-17A levels; also recorded: significant increases in the levels of IL-1 beta, IL-13, IL-18, IL-2, TNF alpha, IL-22, IL-27, and IL-9; Levels of immunological markers (SW620 cells [8]; SW620, 24 h post-treatment): significant increase in the levels of GM-CSF, IL-13, IL-18, IL-4, TNF alpha, IL-22, and IL-9; Levels of immunological markers (SW620 cells [8]; SW620, 48 h post-treatment): levels of IL-4 and IL-10 were significantly increased
O=c1[nH]cc(F)c(=O)[nH]1 [Compound 5-FU, 5-Fluorouracil, reference compound] | > 2000 | 38.8 ± 7.2 | 2.0 | – | > 2000 | 748 ± 158 | – | 0.1 | > 2000 | 296 ± 39.7 | –
Oc1ccc(/C=C/c2cc(O)cc(O)c2)cc1 [Resveratrol, resveratrol, reference compound] | 180 ± 7.2 | 98.2 ± 7 | 0.8 | 0.7 | 217 ± 12.8 | 136 ± 9.1 | 1.1 | 0.8 | 169 ± 3.9 | 125 ± 4.6 | –
